Source: publication PMC4265473 (Molecular nutrition & food research, 2014)
Where “and” joins values, the source holds several entries; their conditions need not be identical. Equal entries are not always repeated. Where two headings read alike, the source gives them in different places. Marks after values point to notes of the source that are not given here.

Tests used:
[1] = mean ± S.D., N = 5; for Urinary excretion (total) during the first 24 h: after enzymatic deconjugation
[2] = for unconjugated form in serum: before enzymatic deconjugation, early time points of medium and high dose subjects; for Cmax / half-life / Tmax / Vd/F: female, human, serum, po; for CL/F: oral
Ishikawa cell line = settings: read-out: EC50, estrogenicity; Ishikawa cells; cited from earlier work
[3] = cited from earlier work
[4] = cited from earlier work; remark: listed apart in the source
[5] = rats, cited from earlier work
[6] = in the stomach; cited from earlier work
[7] = rats, 100 mg/kg XN daily by oral gavage for 5 days; cited from earlier work
[8] = female, human, in vivo
clinical = settings: female, human, in vivo
[9] = 2 capsules/day, medium dose (2 capsules), mean ± S.D., N = 5
[10] = 2 capsules/day, T1/2, medium dose (2 capsules), mean ± S.D., N = 5
[11] = 4 capsules/day, high dose (4 capsules), mean ± S.D., N = 5
[12] = 4 capsules/day, T1/2, high dose (4 capsules), mean ± S.D., N = 5
[13] = high dose (4 capsules), mean ± S.D., N = 5
[14] = low dose (1 capsule), mean ± S.D., N = 5
[15] = medium dose (2 capsules), mean ± S.D., N = 5
[16] = half-life, across all dosages of the hop extract

| Urinary excretion (total) during the first 24 h ([1]; high dose) [nmol] | Urinary excretion (% of dose) during the first 24 h ([1]; high dose) [%] | Urinary excretion (total) during the first 24 h ([1]; low dose) | Urinary excretion (% of dose) during the first 24 h ([1]; low dose) [%] | Urinary excretion (total) during the first 24 h ([1]; medium dose) [nmol] | Urinary excretion (% of dose) during the first 24 h ([1]; medium dose) [%] | unconjugated form in serum [2] | Cmax [2, 9] [ng/mL] | half-life [2, 10] [h] | Tmax [2, 9] [h] | Vd/F [2, 9] [L] | Cmax [2, 11] [ng/mL] | half-life [2, 12] [h] | Tmax [2, 11] [h] | Vd/F [2, 11] [L] | CL/F [2, 13] | CL/F [2, 14] | CL/F [2, 15] | half-life [2, 16] [h] | Compound | also measured |
| --- | --- | --- | --- | --- | --- | --- | --- | --- | --- | --- | --- | --- | --- | --- | --- | --- | --- | --- | --- | --- |
| 172 ± 67.4 | 1.902±0.746 | 29.8 ± 32.3 nmol | 1.318±1.428 | 89.5 ± 54.5 | 1.98±1.205 | detected | 19.1 ± 15.5 | 24.8 ± 24.3 | 3.2 ± 3.2 | 99 ± 56 | 37.6 ± 17.6 | 19.9 ± 8.7 | 4 ± 4.8 | 182 ± 53 | 7.3 ± 3.5 L/h | 7.1 ± 4.2 L/h | 5.7 ± 4.9 L/h |  | COc1cc(O)c(CC=C(C)C)c2c1C(=O)CC(c1ccc(O)cc1)O2 (centres unmarked) [IX, isoxanthohumol] |  |
| 29.4 ± 22.9 | 1.001±0.781 | 5.1 ± 4.4 nmol | 0.693±0.597 | 21.3 ± 21.6 | 1.449±1.467 | no free 8-PN was detected | 3.9 ± 2.6 | > 24 | 7 ± 9.7 | 186 ± 186 | 6.7 ± 3.8 | > 24 | 2.8 ± 4 | 271 ± 216 | 13.7 ± 5.5 L/h | 11.1 ± 3.4 L/h | 10.4 ± 8.1 L/h | > 24 | CC(C)=CCc1c(O)cc(O)c2c1O[C@H](c1ccc(O)cc1)CC2=O [8-PN, 8-prenylnaringenin] | EC50 (Ishikawa cell line): 13 nM; time of secondary peak due to enterohepatic recirculation ([3]; post dose, women): 5 to 8 h; AUC0-24 ([3]; single oral dose of 50 mg 8-PN, women): 453 h^.ng/mL; share of dose recovered in feces within 48 h ([3]; single oral doses to women): 21-24%; AUC0-24 of a theoretical dose of 50 mg 8-PN in the hop extract ([2]; extrapolated assuming AUC linear with dose): 2520 h^.ng/mL; ratio of total serum concentrations 8-PN/IX ([2]; mean of the other 4 subjects, high dose): 0.14; ratio of total serum concentrations 8-PN/IX ([2]; mean value, medium dose): 0.17; ratio of total serum concentrations 8-PN/IX ([2]; one subject with higher exposure, high dose, after enzymatic deconjugation): 0.35; ratio of total serum concentrations 8-PN/IX ([2]; one subject with higher exposure, medium dose): 0.65 |
| 138 ± 113 | 0.058±0.047 | 23.9 ± 17.9^a nmol | 0.040±0.030 | 37.0 ± 26.3 | 0.031±0.022 | detected | 22.2 ± 12.1 | 9.5 ± 2.2 | 3.6 ± 2.6 | 3770 ± 1390 | 27.6 ± 8.9 | 20.7 ± 12.7 | 1.8 ± 1.8 | 7880 ± 1810 | 329 L/h and 329 ± 163 L/h | 657 L/h and 657 ± 670 L/h | 278 L/h and 278 ± 87 L/h | ~19 | COc1cc(O)c(CC=C(C)C)c(O)c1C(=O)/C=C/c1ccc(O)cc1 [XN, xanthohumol] | elimination half-life ([4]; humans, oral pure XN): 18 to 20 h; time of secondary peak due to enterohepatic recirculation ([4]; men and women): 4 h; share recovered in the feces in the first 48 h ([5]; oral administration): 89%; elimination half-life ([5]; oral pure XN): 32 h; half-life of conversion to IX by acid-catalyzed cyclization [6]: 0.617 h; tissue distribution [7]: highest concentrations in the small intestine, colon and the liver |
|  |  |  |  |  |  |  |  |  |  |  |  |  |  |  |  |  |  |  | CC(C)=CCc1c(O)cc2c(c1O)C(=O)C[C@@H](c1ccc(O)cc1)O2 [6-PN, 6-prenylnaringenin] | AUC0-24 ratios after normalization by dose [8]: 1: 1.2: 0.5; Vd/F (clinical; apparent volume of distribution): 887 to 1770 L; AUC(0-inf) (clinical; po, AUC0-inf): 69.2 ± 60 ng·h/mL; half-life (clinical; po, T1/2): 23.5 ± 6.9 h; Vd/F (clinical; po): 887 ± 581 L; half-life (clinical; po, half-life): 21 to 24 h |
